The values below come from ChEMBL document CHEMBL4251561, “1,4-Naphthoquinones potently inhibiting P2X7 receptor activity” (Eur J Med Chem, 2018).

Values after ≈ are worked out from the molar mass of the structure shown. Active and inactive are the calls of the source. The calls are words filed in the database; no cut-off is given here.

Data set [1] in a line: Safety index, ratio of test compound CC50 to A740003 CC50 for Swiss Webster mouse peritoneal macrophages by LDH release assay. The data set is classed as ADME, cell-based, Peritoneal macrophage. Background: LDH leaks from cells whose membrane has failed.
The nature of data set [2]: Octanol-PBS distribution co-efficient, log D of the compound at 25 mM at pH 7.4 after 2 hrs by shake flask method. It is filed as physicochemical.
Data set [3] deals with T1, P2X purinoceptor 7 (Homo sapiens, UniProt Q99572).
T1 sequence (Q99572 whole entry): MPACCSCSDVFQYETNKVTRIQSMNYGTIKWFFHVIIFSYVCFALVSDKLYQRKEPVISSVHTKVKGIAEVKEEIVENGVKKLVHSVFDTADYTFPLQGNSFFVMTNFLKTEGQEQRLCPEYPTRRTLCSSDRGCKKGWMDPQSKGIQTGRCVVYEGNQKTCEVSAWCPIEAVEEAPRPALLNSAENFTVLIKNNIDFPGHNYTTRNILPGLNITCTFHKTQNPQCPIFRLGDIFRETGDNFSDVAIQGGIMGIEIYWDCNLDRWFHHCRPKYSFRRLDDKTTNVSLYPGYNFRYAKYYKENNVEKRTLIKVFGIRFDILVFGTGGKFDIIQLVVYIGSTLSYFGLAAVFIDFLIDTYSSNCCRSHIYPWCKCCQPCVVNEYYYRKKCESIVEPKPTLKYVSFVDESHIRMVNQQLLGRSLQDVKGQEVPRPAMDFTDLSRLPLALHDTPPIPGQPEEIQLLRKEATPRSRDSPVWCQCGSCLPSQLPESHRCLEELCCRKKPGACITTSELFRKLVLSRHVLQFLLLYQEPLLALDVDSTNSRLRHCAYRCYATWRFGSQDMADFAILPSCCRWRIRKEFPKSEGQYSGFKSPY
In words: Antagonist activity at human P2X7R expressed in HEK293 cells assessed as inhibition of ATP-induced […] uptake preincubated for 10 mins followed by ATP induction measured after 25 mins by fluorescence assay. It is filed as cell-based.

Data set [4] has as its system P2X7R. In words: Selectivity index, ratio of CC50 for Swiss Webster mouse peritoneal macrophages to IC50 for antagonist activity at P2X7R in Swiss Webster mouse peritoneal macrophages. It is filed as toxicity. Conditions: read-out: Ratio CC50/IC50.
A short description of data set [5]: Kinetic solubility in pH 4 citrate buffer. The data set is classed as physicochemical. The following applies: read-out: Kinetic_solubility.
Data set [6] can be described thus: Kinetic solubility in pH 2 hydrochloride buffer. The data set is classed as physicochemical. Conditions: read-out: Kinetic_solubility.
Data set [7] in a line: Intrinsic clearance in human liver microsomes assessed per mg of protein at 1 uM preincubated for 45 mins followed by NADPH addition. It is filed as ADME, microsome. The following applies: read-out: CLH. A general note: Liver microsomes are a subcellular fraction often used to study metabolism.
Data set [8] in a line: Apparent permeability across apical to basolateral side in human Caco2 cells at 100 uM after 60 mins by lucifer yellow fluorescence-based assay. Conditions: Caco-2. It is filed as ADME, cell-based. In general terms: Passage across Caco-2 layers is used to estimate intestinal permeability.
The subject of data set [9] is Mus musculus. In words: Antiinflammatory activity in ip dosed Swiss Webster mouse assessed as inhibition of carrageenan-induced paw edema preincubated for 30 mins followed by carrageenan challenge measured after 60 mins by plethysmometer. The data set is classed as functional, organism-based.
The test system of data set [10] is THP-1. In words: Antiinflammatory activity in LPS/IFNgamma-differentiated human THP1 cells assessed as inhibition of ATP-induced IL-1beta release after 30 mins by ELISA. The data set is classed as functional, cell-based. The following applies: THP-1, 0.5 h.
The test system of data set [11] is Peritoneal macrophage. In words: Antiinflammatory activity in IFNgamma-differentiated Swiss Webster mouse peritoneal macrophages assessed as inhibition of LPS-induced IL-1beta release at 500 nM preincubated for 15 mins followed by LPS challenge measured after 30 mins by sandwich ELISA. It is filed as functional, cell-based.
A short description of data set [12]: Intrinsic clearance in mouse liver microsomes assessed per mg of protein at 1 uM preincubated for 45 mins followed by NADPH addition. The following applies: read-out: CLH. The data set is classed as ADME, microsome.
Data set [13] is described as follows: Kinetic solubility in pH 10 sodium hydroxide buffer. It is filed as physicochemical. Conditions: read-out: Kinetic_solubility.
In data set [14] the target is T2, P2X purinoceptor 7 (Mus musculus) (UniProt Q9Z1M0).
T2 sequence (whole entry): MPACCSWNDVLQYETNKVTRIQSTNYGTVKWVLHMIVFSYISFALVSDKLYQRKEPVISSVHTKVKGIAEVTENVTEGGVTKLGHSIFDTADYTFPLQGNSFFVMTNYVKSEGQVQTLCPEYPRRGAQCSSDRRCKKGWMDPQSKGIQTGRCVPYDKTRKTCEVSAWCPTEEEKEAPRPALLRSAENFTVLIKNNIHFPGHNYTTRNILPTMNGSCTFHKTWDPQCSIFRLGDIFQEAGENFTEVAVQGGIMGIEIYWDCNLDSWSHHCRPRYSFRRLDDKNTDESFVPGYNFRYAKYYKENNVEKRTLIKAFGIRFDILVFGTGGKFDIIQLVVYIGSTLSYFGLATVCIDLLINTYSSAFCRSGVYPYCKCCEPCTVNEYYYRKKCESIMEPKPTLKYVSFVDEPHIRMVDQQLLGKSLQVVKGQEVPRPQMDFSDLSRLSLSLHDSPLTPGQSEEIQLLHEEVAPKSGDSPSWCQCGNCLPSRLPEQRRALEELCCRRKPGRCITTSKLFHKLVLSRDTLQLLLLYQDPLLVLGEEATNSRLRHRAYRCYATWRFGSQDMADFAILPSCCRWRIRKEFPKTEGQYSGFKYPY
In words: Antagonist activity at P2X7R in Swiss Webster mouse peritoneal macrophages assessed as inhibition of ionic current amplitude at 500 nM incubated for 300 secs in presence of ATP by patch clamp method.

A short description of data set [15]: Kinetic solubility in pH 7.4 phosphate buffer. It is filed as physicochemical. The following applies: read-out: Kinetic_solubility.
The target of data set [16] is T3, P2X purinoceptor 7 (Mus musculus, UniProt Q9Z1M0).
T3 sequence (Q9Z1M0 whole entry): T2 sequence (whole entry)
In words: (§1) Antagonist activity at P2X7R in Swiss Webster mouse peritoneal macrophages assessed as inhibition of ATP-induced propidium iodide uptake preincubated for 10 mins followed by ATP induction measured after 25 mins by fluorescence assay.

The target in data set [17] is T2, P2X purinoceptor 7 (Mus musculus). The description is as §1.
Data set [18] in a line: Apparent permeability across apical to basolateral side in human Caco2 cells at 100 uM after 60 mins by lucifer yellow fluorescence-based assay relative to propranolol. The data set is classed as ADME, cell-based. Conditions: caco-2, 1 h.
For data set [19], the system named is Peritoneal macrophage. In words: Antiinflammatory activity in LPS/IFNgamma-differentiated Swiss Webster mouse peritoneal macrophages assessed as inhibition of ATP-induced IL-1beta release preincubated for 15 mins followed by ATP/LPS challenge measured after 30 mins by sandwich ELISA. It is filed as functional, cell-based.
A short description of data set [20]: Cytotoxicity against Swiss Webster mouse peritoneal macrophages by LDH release assay. It is filed as cell-based, Peritoneal macrophage.
Data set [21] deals with Peritoneal macrophage. In words: Cytotoxicity against Swiss Webster mouse peritoneal macrophages at 100 uM after 72 hrs by resazurin reduction assay. It is filed as cell-based.
Data set [22] is described as follows: Safety index, ratio of test compound CC50 to BGG CC50 for Swiss Webster mouse peritoneal macrophages by LDH release assay. It is filed as ADME, cell-based, Peritoneal macrophage.
Data set [23] relates to Mus musculus. In words: Antiinflammatory activity in Swiss Webster mouse assessed as inhibition of carrageenan-induced paw edema at 10 mg/kg, ip preincubated for 30 mins followed by carrageenan challenge measured after 60 mins by plethysmometer. It is filed as functional, organism-based.

By logD is commonly meant the decadic logarithm of the distribution of all forms, ionised or not, between an organic phase and buffer at a given pH. The IC50 is the concentration needed to halve the response being measured. Broadly, the Papp A→B is how fast a substance crosses the layer from the apical side. In general, CC50 refers to the concentration that lowers cell viability or growth by half. Low readings indicate harm at low concentration, high ones better tolerance by the cells.

Consider `O=C1C(O)=C(c2ccccc2)C(=O)c2ccccc21`, for which the selectivity ratio was 3 to 6 in data set [1], 86400 in data set [4] and 10 to 20 in data set [22]. Also, the logD at 2 h, 25000 µM in [2] is -0.39. Also, the IC50 in data set [3] is 0.0224 µM; in data set [10], 0.0098 µM; in data set [16], 0.0231 µM; in data set [19], 0.0112 µM. The solubility kinetic in data set [5], in data set [6], in data set [13] and in data set [15] was below 500 µM throughout. Besides, the microsomal CLint at 1 µM in data set [7] turned out to be 36.8 µL/min/mg; in data set [12], 27.7 µL/min/mg. In addition, the Papp A→B at 1 h, 100 µM in data set [8] stood at 61.1 ×10⁻⁶ cm/s. The inhibition result in [9] and in data set [17] was “Dose-dependent effect” in each case. Further, the inhibition entry in data set [11] is “inactive”. Further, in [14], the inhibition entry was “Active”. Also, in [18], the Papp is listed as 60%. The compound further returned a CC50 in data set [20] of 1990 µM. The Activity entry in [21] is “Non-Toxic”.

Take `COc1cccc(C2=C(O)C(=O)c3ccccc3C2=O)c1`: the IC50 in [16] was 3.17 µM. Further, the Activity entry in data set [21] is listed as “Non-Toxic”.

Consider `CCOc1ccc(Nc2ccc(/C(=C3C=C/C(=[N+](/CC)Cc4cccc(S(=O)(=O)[O-])c4)C=C/3C)c3ccc(N(CC)Cc4cccc(S(=O)(=O)O)c4)cc3C)cc2)cc1` [BRILLIANT BLUE G], for which the concentration for half-maximal inhibition (IC50) in data set [3] came out at 0.536 µM; in data set [10], 19.3 µM; in [16], 15.2 µM; in data set [19] it was 19.8 µM. Besides, the selectivity ratio in data set [4] was determined as 5.73. Further, the CC50 in [20] came out at 87.3 µM.

With `O=C1C=C(O)C(=O)c2ccccc21` [LAWSONE], in data set [16], the half-inhibitory concentration (IC50) was 75.5 µM. Moreover, the Activity entry in data set [21] is reported as “Toxic”.

With `COc1ccc(CC(=O)NC(N/C(=N/C#N)Nc2cccc3ncccc23)C(C)(C)C)cc1OC` (stereo unspecified), the IC50 in [3] turned out to be 0.109 µM; in data set [10] it was 0.689 µM; in [16], 0.897 µM; in data set [19] it was 0.723 µM. Moreover, the selectivity ratio in data set [4] was 362. For the same compound, in data set [14], the inhibition entry is “Active”. Also, in data set [20], the midpoint of cytotoxicity, the CC50, lay at 325 µM.

On to `O=C(O)Cc1ccccc1Nc1c(Cl)cccc1Cl`, for which the inhibition entry in data set [23] was “Active”.

Regarding `COc1ccc(C2=C(O)C(=O)c3ccccc3C2=O)cc1`, the IC50 in data set [16] came out at 80.1 µM. Also, the Activity result in [21] was “Non-Toxic”.

As for `N#Cc1ccc(C2=C(O)C(=O)c3ccccc3C2=O)cc1`, in data set [16], the IC50 came out at 45.8 µM. Also, in [21], the Activity result is “Non-Toxic”.

In the case of `O=C1C(O)=C(Br)C(=O)c2ccccc21`, the selectivity ratio in data set [1] is 3 to 6; in data set [4] it was 1180; in data set [22], 10 to 20. Moreover, the IC50 is 0.414 µM in data set [3], 0.633 µM in [10], 0.712 µM in data set [16] and 0.677 µM in data set [19]. The inhibition entry in [11] was “inactive”. Also, the inhibition entry in data set [17] was “Dose-dependent effect”. Besides, in data set [20], the midpoint of cytotoxicity, the CC50, lay at 844 µM. Besides, in [21], the Activity result is “Non-Toxic”.

On to `O=C1C(O)=C(c2cccc(F)c2)C(=O)c2ccccc21`, for which, in [16], the IC50 came out at 33.5 µM. For the same compound, the Activity result in data set [21] is “Non-Toxic”.

As to `O=C1C(O)=C(I)C(=O)c2ccccc21`, the figures for the selectivity ratio in data set [1], in data set [4] and in [22] were 3 to 6, 50600 and 10 to 20, respectively. The compound further returned a pH-dependent lipophilicity (logD) at 2 h, 25000 µM in data set [2] of -0.11. Moreover, the IC50 in [3] came to 0.0712 µM; in [10], 0.0402 µM; in [16], 0.0484 µM; in data set [19], 0.0489 µM. Besides, the solubility kinetic in data set [5] is 300 µM (≈ 90 µg/mL); in data set [6], 300 µM (≈ 90 µg/mL); in [13], 300 µM (≈ 90 µg/mL); in [15] it was below 300 µM. Moreover, the microsomal CLint at 1 µM was 31.1 µL/min/mg in [7] and 24.6 µL/min/mg in [12]. In addition, the Papp A→B at 1 h, 100 µM in data set [8] came out at 54.2 ×10⁻⁶ cm/s. For the same compound, the inhibition result in data set [9] and in data set [17] was “Dose-dependent effect” throughout. For the same compound, in data set [11], the inhibition result was “inactive”. In addition, in data set [14], the inhibition entry is “Active”. Further, the Papp entry in [18] is on record as “<= 50%”. The compound also had a CC50 in [20] of 2020 µM. For the same compound, the Activity entry in data set [21] is listed as “Non-Toxic”.

On to `Cc1ccc(C2=C(O)C(=O)c3ccccc3C2=O)cc1`, for which, in data set [16], the IC50 was found to be 81.3 µM. Moreover, the Activity result in data set [21] is listed as “Non-Toxic”.
